The target of one test is T1, human PAH with the R408W mutation (Homo sapiens, UniProt P00439, R408W).
T1 construct: expressed in transfected cells
T1 sequence (P00439 1-452 R408W): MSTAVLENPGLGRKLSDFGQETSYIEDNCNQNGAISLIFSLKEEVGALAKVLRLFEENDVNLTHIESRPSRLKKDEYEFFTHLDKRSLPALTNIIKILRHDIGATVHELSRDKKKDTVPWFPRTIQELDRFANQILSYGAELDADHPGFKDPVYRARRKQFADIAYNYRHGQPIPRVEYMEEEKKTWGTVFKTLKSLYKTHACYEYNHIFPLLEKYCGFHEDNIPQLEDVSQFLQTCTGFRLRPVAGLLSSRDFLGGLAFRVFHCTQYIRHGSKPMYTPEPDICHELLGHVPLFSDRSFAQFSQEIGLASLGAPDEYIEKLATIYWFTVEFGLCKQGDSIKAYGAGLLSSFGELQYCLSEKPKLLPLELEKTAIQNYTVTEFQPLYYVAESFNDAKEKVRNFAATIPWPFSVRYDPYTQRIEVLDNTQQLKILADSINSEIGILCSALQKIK
The experiment in a line: Cell Based Phenylalanine Flux Assay. Details: scale not given here. The following applies: A375 cells expressing human R408W PAH; 24 hrs compound incubation; 13C-Tyrosine by LC-MS; average where tested multiple times; read-out: AC50.
Regarding `Cn1cc(-c2ncc(C(=O)N3CCc4[nH]cnc4[C@@H]3c3nc4ccccc4s3)o2)cn1` [Example 1343, (R)-(4-(benzo[d]thiazol-2-yl)-6,7-dihydro-1H-imidazo[4,5-c]pyridin-5(4H)-yl)(2-(1-methyl-1H-pyrazol-4-yl)oxazol-5-yl)methanone], the concentration at half-maximal activity (AC50) (commonly the concentration giving half of the maximal activity seen) lay in the range of 1 to 5 µM. Same read-out and setting: to `O=C(c1nnc(-c2cnn(CC(F)F)c2)o1)N1CCc2[nH]cnc2[C@@H]1c1nc2c(F)cccc2s1` [Example 1881, (R)-(5-(1-(2,2-difluoroethyl)-1H-pyrazol-4-yl)-1,3,4-oxadiazol-2-yl)(4-(4-fluorobenzo[d]thiazol-2-yl)-6,7-dihydro-1H-imidazo[4,5-c]pyridin-5(4H)-yl)methanone] belongs 1 to 5 µM. As for `O=C(Cc1nc(C(F)(F)F)cs1)N1CCc2[nH]cnc2[C@H]1c1nc2ccccc2s1` [Example 1033], the half-maximal activity concentration (AC50) was 0.5 to 1 µM. As to `C[C@@H](O)c1nc(C(F)F)c(C(=O)N2CCc3[nH]cnc3[C@@H]2c2nc3ccccc3s2)o1` [Example 2092, ((R)-4-(benzo[d]thiazol-2-yl)-6,7-dihydro-1H-imidazo[4,5-c]pyridin-5(4H)-yl)(4-(difluoromethyl)-2-((R)-1-hydroxyethyl)oxazol-5-yl)methanone], the AC50 lay within 0.5 to 1 µM.

As for `O=C(c1nc(Cl)cs1)N1CCc2[nH]cnc2[C@@H]1c1nc2cccc(F)c2s1` [Example 1264, (R)-(4-chlorothiazol-2-yl)(4-(7-fluorobenzo[d]thiazol-2-yl)-6,7-dihydro-1H-imidazo[4,5-c]pyridin-5(4H)-yl)methanone], the half-maximal activity concentration (AC50) is 1 to 5 µM. Consider `N#Cc1nc(-c2ccccn2)oc1C(=O)N1CCc2[nH]cnc2[C@@H]1c1nc2ccccc2s1` [Example 1713, (R)-5-(4-(benzo[d]thiazol-2-yl)-4,5,6,7-tetrahydro-1H-imidazo[4,5-c]pyridine-5-carbonyl)-2-(pyridin-2-yl)oxazole-4-carbonitrile], for which the AC50 was > 5 µM. The same measure, in the same setting: in the case of `O=C(c1cnn2ccc(Br)cc12)N1CCc2[nH]cnc2[C@H]1c1nc2cccc(F)c2s1` [Example 1283] it was < 0.5 µM; in that of `O=C(c1oc(COC(F)(F)F)nc1C(F)F)N1CCc2[nH]cnc2[C@H]1c1nc2ccccc2s1` [Example 1831], < 0.5 µM. On the same count and under the same terms, in the case of `O=C(c1cnn2ccccc12)N1CCc2[nH]cnc2[C@H]1c1nc2cccc(Cl)c2[nH]1` [Example 986, (S)-(4-(7-chloro-1H-benzo[d]imidazol-2-yl)-6,7-dihydro-1H-imidazo[4,5-c]pyridin-5(4H)-yl)(pyrazolo[1,5-a]pyridin-3-yl)methanone] it was 0.5 to 1 µM; in that of `Fc1ccc(-c2nnc(N3CCc4[nH]cnc4[C@H]3c3nc4ccccc4s3)o2)cc1` [Example 1491], < 0.5 µM. Turning to `O=C(c1nnc(-c2cn[nH]c2)o1)N1CCc2[nH]cnc2[C@H]1c1nc2ccccc2s1` [Example 1921], the concentration at half-maximal activity (AC50) was 0.5 to 1 µM. As to `O=C(c1oc(-c2ccccn2)nc1C1CC1)N1CCCc2[nH]cnc2[C@H]1c1nc2ccccc2s1` [Example 2119, (S)-(4-(benzo[d]thiazol-2-yl)-7,8-dihydroimidazo[4,5-c]azepin-5(1H,4H,6H)-yl)(4-cyclopropyl-2-(pyridin-2-yl)oxazol-5-yl)methanone], the AC50 lay within 0.5 to 1 µM. Still for that read-out and setting: in the case of `O=C(Cc1nccs1)N1CCc2[nH]cnc2[C@@H]1c1nc2ccccc2s1` [Example 1038, (R)-1-(4-(benzo[d]thiazol-2-yl)-6,7-dihydro-1H-imidazo[4,5-c]pyridin-5(4H)-yl)-2-(thiazol-2-yl)ethenone] it was > 5 µM; in that of `Cn1cc(C(=O)N2CCc3[nH]cnc3[C@H]2c2nc3c(F)cccc3s2)c(Cl)n1` [Example 1644], < 0.5 µM; in that of `CC(C)(O)c1ncc(C(=O)N2CCc3[nH]cnc3[C@@H]2c2nc3c(F)cccc3s2)s1` [Example 1478, (R)-(4-(4-fluorobenzo[d]thiazol-2-yl)-6,7-dihydro-1H-imidazo[4,5-c]pyridin-5(4H)-yl)(2-(2-hydroxypropan-2-yl)thiazol-5-yl)methanone], 1 to 5 µM. Take `O=C(c1nnc(-c2cnn(S(=O)(=O)C3CC3)c2)o1)N1CCc2[nH]cnc2[C@H]1c1nc2ccccc2s1` [Example 1939]: the AC50 is 0.5 to 1 µM.

In the case of `CC[C@H](O)c1nc(C(F)F)c(C(=O)N2CCc3[nH]cnc3[C@@H]2c2nc3c(F)cccc3s2)o1` [Example 2064, (4-(difluoromethyl)-2-((S)-1-hydroxypropyl)oxazol-5-yl)((R)-4-(4-fluorobenzo[d]thiazol-2-yl)-6,7-dihydro-1H-imidazo[4,5-c]pyridin-5(4H)-yl)methanone], the AC50 is 1 to 5 µM. In the case of `CN(C)CCn1cc(C(=O)N2CCc3[nH]cnc3[C@H]2c2nc3c(F)cccc3s2)c(C(F)(F)F)n1` [Example 1641], the AC50 was < 0.5 µM.

As for `O=C(CCc1nccs1)N1CCc2[nH]cnc2[C@@H]1c1nc2cccc(F)c2s1` [Example 1036, (R)-1-(4-(7-fluorobenzo[d]thiazol-2-yl)-6,7-dihydro-1H-imidazo[4,5-c]pyridin-5(4H)-yl)-3-(thiazol-2-yl)propan-1-one], the AC50 fell in the range of 1 to 5 µM.

As for `O=C(c1cnc(-c2ccc(F)cn2)o1)N1CCc2[nH]cnc2[C@H]1c1nc2ccccc2s1` [Example 1337], the AC50 is < 0.5 µM. Still for that read-out and setting: in the case of `O=C(c1cnn(CC(F)(F)F)c1Cl)N1CCc2[nH]cnc2[C@@H]1c1nc2c(F)cccc2s1` [Example 1968, (R)-(5-chloro-1-(2,2,2-trifluoroethyl)-1H-pyrazol-4-yl)(4-(4-fluorobenzo[d]thiazol-2-yl)-6,7-dihydro-1H-imidazo[4,5-c]pyridin-5(4H)-yl)methanone] it was 1 to 5 µM; in that of `Cn1nc(C(=O)N2CCc3[nH]cnc3[C@H]2c2nc3ccccc3s2)c2ccccc21` [Example 1525], 0.5 to 1 µM; in that of `Cc1nc(Br)c(C(=O)N2CCc3[nH]cnc3[C@@H]2c2nc3c(F)cccc3s2)o1` [Example 1759, (R)-(4-bromo-2-methyloxazol-5-yl)(4-(4-fluorobenzo[d]thiazol-2-yl)-6,7-dihydro-1H-imidazo[4,5-c]pyridin-5(4H)-yl)methanone], 1 to 5 µM. The same measure, in the same setting: to `O=C(c1nnc(NC2CC2)o1)N1CCc2[nH]cnc2[C@H]1c1nc2ccccc2s1` [Example 1593] belongs 0.5 to 1 µM.

The test is the same for the next values; noted with them: A375 cells expressing human R408W PAH; 24 hrs with compound; 13C-Tyrosine by LC-MS; average where tested multiple times.
Consider `COCCc1ccc2c(C(=O)N3CCc4[nH]cnc4C3c3nc4ccccc4s3)c(C(F)(F)F)nn2c1` (stereo not drawn), for which the AC50 result is on record as “E, E”.

The same test, now with this note: A375 cells expressing human R408W PAH; 24 hrs with compound; 13C-Tyrosine by LC-MS; average where tested multiple times; read-out: AC50.
Regarding `O=C(c1cnn2cc(N3CCCC3)ccc12)N1CCc2[nH]cnc2C1c1nc2ccccc2s1` (stereo not drawn), the AC50 lay within 1 to 5 µM. Still for that read-out and setting: to `O=C(c1cnco1)N1CCc2[nH]cnc2[C@@H]1c1nc2cc(F)ccc2s1` (single isomer, unassigned) belongs > 5 µM; to `Cc1nc(-c2ccccn2)sc1C(=O)N1CCc2[nH]cnc2C1c1nc2ccccc2s1` (stereo not drawn), 1 to 5 µM; to `O=C(CCc1nccs1)N1CCc2[nH]cnc2C1c1nc2ccc(Cl)cc2s1` (stereo not drawn), 1 to 5 µM. Still for that read-out and setting: to `Cn1ncc(C(=O)N2CCc3[nH]cnc3C2c2nc3c(F)cccc3s2)n1` (stereo not drawn) belongs 1 to 5 µM; to `O=C(c1cnco1)N1CCc2[nH]cnc2C1c1nc2ccc(F)cc2s1` (stereo not drawn), 1 to 5 µM.

For the compound `O=C(c1ccsn1)N1CCc2[nH]cnc2C1c1nc2ccccc2s1` (stereo not drawn), the half-maximal activity concentration (AC50) was > 5 µM. Same read-out and setting: in the case of `O=C(c1cnn2c(Br)cccc12)N1CCc2[nH]cnc2C1c1nc2ccc(Br)cc2[nH]1` (stereo not drawn) it was 1 to 5 µM. The same measure, in the same setting: to `O=C(c1nsc2ccccc12)N1CCc2[nH]cnc2C1c1nc2ccccc2s1` (stereo not drawn) belongs 1 to 5 µM; to `O=C(c1cnn2cc(CO)ccc12)N1CCc2[nH]cnc2C1c1nc2ccccc2s1` (stereo not drawn), > 5 µM.

Consider `Cc1ncc(CC(=O)N2CCc3[nH]cnc3[C@H]2c2nc3ccccc3[nH]2)o1` [(S)-1-(4-(1H-benzo[d]imidazol-2-yl)-6,7-dihydro-1H-imidazo[4,5-c]pyridin-5(4H)-yl)-2-(2-methyloxazol-5-yl)ethanone], for which the AC50 was > 5 µM. On the same count and under the same terms, to `Cn1nc(C(C)(C)O)nc1C(=O)N1CCc2[nH]cnc2C1c1nc2ccccc2s1` (stereo not drawn) belongs 1 to 5 µM; to `Cn1nnc(C(=O)N2CCc3[nH]cnc3C2c2nc3ccccc3s2)n1` (stereo not drawn), 1 to 5 µM. The same measure, in the same setting: in the case of `Cc1nc(C2CCN2)oc1C(=O)N1CCc2[nH]cnc2C1c1nc2c(F)cccc2s1` (stereo not drawn) it was > 5 µM. For the compound `O=C(Cc1cscn1)N1CCc2[nH]cnc2[C@H]1c1nc2ccccc2s1` (single isomer, unassigned), the AC50 was 1 to 5 µM. Same read-out and setting: to `O=C(c1cnco1)N1CC2(CC2)c2[nH]cnc2C1c1nc2c(F)cccc2s1` (stereo not drawn) belongs 1 to 5 µM; to `Cn1nc(N)cc1C(=O)N1CCc2[nH]cnc2C1c1nc2ccccc2s1` (stereo not drawn), 1 to 5 µM; to `O=C(c1nc2ccccc2s1)N1CCc2nc[nH]c2C1c1nc2ccc(Br)cc2s1` (stereo not drawn), > 5 µM. With `Fc1ccc2sc(CN3CCc4[nH]cnc4C3c3nc4cc(F)ccc4s3)nc2c1` (stereo not drawn), the AC50 is > 5 µM. As to `O=C(c1ccn(-c2ccccn2)n1)N1CCc2[nH]cnc2C1c1nc2c(F)cccc2s1` (stereo not drawn), the AC50 is > 5 µM. On to `O=C(c1cocn1)N1CCc2[nH]cnc2[C@H]1c1nc2ccccc2[nH]1` [(S)-(4-(1H-benzo[d]imidazol-2-yl)-6,7-dihydro-1H-imidazo[4,5-c]pyridin-5(4H)-yl)(oxazol-4-yl)methanone], for which the AC50 lay in the range of 1 to 5 µM. Still for that read-out and setting: in the case of `Cc1nc(C(C)(C)O)oc1C(=O)N1CC(C)c2[nH]cnc2C1c1nc2c(F)cccc2s1` (stereo not drawn) it was > 5 µM; in that of `Cn1nnc(C(=O)N2CCc3[nH]cnc3C2c2nc3c(F)cccc3s2)n1` (stereo not drawn), 1 to 5 µM.

These data come from patent publication US20250171438A1 (Agios Pharmaceuticals, Inc., priority 2022, published 2025).
